Results on 18 molecules are retold here after US11866430B2, “Naphthyridinone compounds useful as T cell activators” (priority 2018, dated 2024).

Structures are written as SMILES. Like-named read-outs stand apart in the source and are kept apart here.

The term IC50 denotes the concentration needed to halve the response being measured.

Test [1] relates to pre-activated CD4 T cells and Raji cells. The test can be described thus: Raji CD4 T Cell IL2 Assay. It is filed as cell-based.
The target in test [2] is human DGKζ (Homo sapiens (Human), UniProt Q13574). Kind of test: DGKζ assay (detergent/lipid micelle substrate). It is filed as biochemical. As to conditions: detergent/lipid micelle substrate; read-out: DGKζ IC50. Here is the method:
(§1) The DGKα and DGKζ reactions were performed using either extruded liposome (DGKα and DGKζ LIPGLO assays) or detergent/lipid micelle substrate (DGKα and DGKζ assays). The reactions were carried out in 50 mM MOPS pH 7.5, 100 mM NaCl, 10 mM MgCl2, 1 μM CaCl2, and 1 mM DTT (assay buffer). The reactions using a detergent/lipid micelle substrate also contained 50 mM octyl B-D-glucopyranoside. […] The lipid substrate concentrations were […], 0.25 mM DAG, and 2.75 mM PC for the extruded liposome reactions.
(§2) The compound inhibition studies were carried out as follows: 50 nL droplets of each test compound (top concentration 10 mM with 11 point, 3-fold dilution series for each compound) solubilized in DMSO were transferred to wells of a white 1536 well plate (Corning 3725). A 5 mL enzyme/substrate solution at 2× final reaction concentration was prepared by combining 2.5 mL 4× enzyme solution (20 nM DGKα or DGKζ (prepared as described below) in assay buffer) and 2.5 mL of either 4× liposome or 4× detergent/lipid micelle solution (compositions described below) and incubated at room temperature for 10 minutes. Next, 1 μL 2× enzyme/substrate solution was added to wells containing the test compound and reactions were initiated with the addition of 1 μL 300 uM ATP. The reactions were allowed to proceed for 1 hr, after which 2 μL Glo Reagent (Promega V9101) was added and incubated for 40 minutes. Next, 4 μL Kinase Detection Reagent was added and incubated for 30 minutes. Luminescence was recorded using an EnVision microplate reader. […] The compounds were evaluated at 11 concentrations to determine IC50.
(§3) The detergent/lipid micelle was prepared by combining 15 g phosphatidylserine (Avanti 840035P) and 1 g diacylglycerol (800811O) and dissolving into 150 mL chloroform in a 2 L round bottom flask. Chloroform was removed under high vacuum by rotary evaporation. The resulting colorless, tacky oil was resuspended in 400 mL 50 mM MOPS pH 7.5, 100 mM NaCl, 20 mM NaF, 10 mM MgCl2, 1 μM CaCl2), 1 mM DTT, and 200 mM octyl glucoside by vigorous mixing. The lipid/detergent solution was split into 5 mL aliquots and stored at −80° C.
(§4) Human DGK-alpha-TVMV-His-pFBgate and human DCK-zeta-transcript variant-2-TVMV-His-pFBgate baculovirus samples were generated using the Bac-to-Bac baculovirus expression system (Invitrogen) according to the manufacturer's protocol. The DNA used for expression of DGK-alpha and DGK-zeta have SEQ ID NOs: 1 and 3, respectively. Baculovirus amplification was achieved using infected Sf9 cells at 1:1500 virus/cell ratios, and grown for 65 hours at 27° C. post-transfection.
(§5) The expression scale up for each protein was carried out in the Cellbag 50 L WAVE-Bioreactor System 20/50 from GE Healthcare Bioscience. 12 L of 2×10^6 cells/mL Sf9 cells (Expression System, Davis, Calif.) grown in ESF921 insect medium (Expression System) were infected with virus stock at 1:200 virus/cell ratios, and grown for 66-68 hours at 27° C. post-infection. The infected cell culture was harvested by centrifugation at 2000 rpm for 20 min 4° C. in a SORVALL® RC12BP centrifuge. The cell pellets were stored at −70° C. until purification.
(§6) Full length human DGKα and DGKζ, each expressed containing a TVMV-cleavable C-terminal Hexa-His tag sequence (SEQ ID NOs: 2 and 4, respectively) and produced as described above, were purified from Sf) baculovirus-infected insect cell paste. The cells were lysed using nitrogen cavitation method with a nitrogen bomb (Parr Instruments), and the lysates were clarified by centrifugation. […] The three steps column chromatography included nickel affinity resin capture (i.e. HisTrap FF crude, GE Healthcare), followed by size exclusion chromatography (i.e. HiLoad 26/600 Superdex 200 prep grade, GE Healthcare for DGK-alpha, and HiPrep 26/600 Sephacryl S 300_HR, GE Healthcare for DGK-zeta).

The target of test [3] is human DGKα (Homo sapiens (Human), UniProt P23743). Kind of test: biochemical. The note with it: detergent/lipid micelle substrate; read-out: DGKα IC50. The protocol:
as §1, §2, §3, §4, §5, §6

human DGKα, sequence (P23743 other isoform, or with tags, fused parts or gaps): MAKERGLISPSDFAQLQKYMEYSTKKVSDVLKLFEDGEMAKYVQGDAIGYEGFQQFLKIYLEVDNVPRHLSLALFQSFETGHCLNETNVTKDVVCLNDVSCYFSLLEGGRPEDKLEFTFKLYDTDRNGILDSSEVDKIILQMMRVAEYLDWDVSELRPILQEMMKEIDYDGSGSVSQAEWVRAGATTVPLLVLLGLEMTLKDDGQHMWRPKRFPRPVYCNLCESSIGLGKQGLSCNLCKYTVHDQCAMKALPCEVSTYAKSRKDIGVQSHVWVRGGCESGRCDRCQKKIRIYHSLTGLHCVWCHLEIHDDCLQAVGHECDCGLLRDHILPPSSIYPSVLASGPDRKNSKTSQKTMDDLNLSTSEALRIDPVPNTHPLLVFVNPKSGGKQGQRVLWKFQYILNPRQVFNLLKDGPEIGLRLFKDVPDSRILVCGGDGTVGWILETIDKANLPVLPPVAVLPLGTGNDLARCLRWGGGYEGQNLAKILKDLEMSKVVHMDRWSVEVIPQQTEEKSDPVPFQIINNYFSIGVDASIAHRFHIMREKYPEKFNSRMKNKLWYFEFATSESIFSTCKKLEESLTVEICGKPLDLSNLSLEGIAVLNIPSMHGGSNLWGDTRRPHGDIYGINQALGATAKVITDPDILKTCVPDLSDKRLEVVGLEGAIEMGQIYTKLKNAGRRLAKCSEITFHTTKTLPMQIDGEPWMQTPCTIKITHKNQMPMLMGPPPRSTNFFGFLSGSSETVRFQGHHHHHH
human DGKζ, sequence (Q13574 other isoform, or with tags, fused parts or gaps): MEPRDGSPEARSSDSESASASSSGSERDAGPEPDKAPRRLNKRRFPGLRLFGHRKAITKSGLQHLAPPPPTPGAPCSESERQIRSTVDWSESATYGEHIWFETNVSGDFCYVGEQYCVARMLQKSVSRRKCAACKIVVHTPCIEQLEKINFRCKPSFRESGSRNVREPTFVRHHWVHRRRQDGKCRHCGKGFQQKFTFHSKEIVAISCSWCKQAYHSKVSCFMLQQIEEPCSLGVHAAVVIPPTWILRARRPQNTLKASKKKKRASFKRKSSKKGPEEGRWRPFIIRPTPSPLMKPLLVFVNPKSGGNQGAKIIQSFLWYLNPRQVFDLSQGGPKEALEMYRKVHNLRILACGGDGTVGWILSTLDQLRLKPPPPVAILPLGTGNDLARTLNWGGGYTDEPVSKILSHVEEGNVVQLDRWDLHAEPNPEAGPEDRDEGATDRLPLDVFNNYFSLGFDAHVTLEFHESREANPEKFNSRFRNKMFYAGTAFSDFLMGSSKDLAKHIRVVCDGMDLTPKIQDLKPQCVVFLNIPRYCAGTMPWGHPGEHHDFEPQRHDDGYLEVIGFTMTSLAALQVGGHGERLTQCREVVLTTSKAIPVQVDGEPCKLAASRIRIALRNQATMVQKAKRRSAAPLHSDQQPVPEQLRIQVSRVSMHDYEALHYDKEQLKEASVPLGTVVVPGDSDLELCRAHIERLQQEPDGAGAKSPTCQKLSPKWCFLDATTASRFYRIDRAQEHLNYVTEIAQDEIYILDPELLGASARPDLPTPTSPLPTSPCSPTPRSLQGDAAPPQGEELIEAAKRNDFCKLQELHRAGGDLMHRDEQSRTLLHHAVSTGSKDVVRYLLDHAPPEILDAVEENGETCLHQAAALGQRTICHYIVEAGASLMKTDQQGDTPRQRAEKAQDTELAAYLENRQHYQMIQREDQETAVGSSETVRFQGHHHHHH

As for `Cn1c(=O)c(C#N)c(N2CCN(Cc3c(O)cccc3Cl)CC2)c2nc(Cl)ccc21` [Example 267, 6-chloro-4-{4-[(2-chloro-6-hydroxyphenyl)methyl]piperazin-1-yl}-1-methyl-2-oxo-1,2-dihydro-1,5-naphthyridine-3-carbonitrile], the IC50 in test [1] (Homo sapiens, Raji) was 0.048 µM; in test [2] it was above 240 µM; in test [3] it was 0.31 µM.

In the case of `Cn1c(=O)c(C#N)c(N2CCN(Cc3ccc(O)c(Cl)c3)CC2)c2nc(Cl)ccc21` [Example 354, 6-chloro-4-{4-[(3-chloro-4-hydroxyphenyl)methyl]piperazin-1-yl}-1-methyl-2-oxo-1,2-dihydro-1,5-naphthyridine-3-carbonitrile], the IC50 is 2.5 µM in test [1] (Homo sapiens, Raji); above 240 µM in test [2]; 0.11 µM in test [3].

For `Cn1c(=O)c(C#N)c(N2CCN(Cc3ccccc3)CC2)c2nc(Cl)ccc21` [Example 343, 4-(4-benzylpiperazin-1-yl)-6-chloro-1-methyl-2-oxo-1,2-dihydro-1,5-naphthyridine-3-carbonitrile], the concentration for half-maximal inhibition (IC50) in test [1] (Homo sapiens, Raji) is 0.81 µM; in test [2] it was above 81 µM; in test [3], 0.068 µM.

Consider `Cn1c(=O)c(C#N)c(N2CCN(Cc3ccccc3NC(=O)Nc3ccccc3)CC2)c2nc(Br)ccc21` [Example 214, 1-(2-((4-(6-bromo-3-cyano-1-methyl-2-oxo-1,2-dihydro-1,5-naphthyridin-4-yl)piperazin-1-yl)methyl)phenyl)-3-phenylurea], for which the IC50 was 0.55 µM in test [1] (Homo sapiens, Raji); above 81 µM in test [2]; 3.1 µM in test [3].

With `Cn1c(=O)c(C#N)c(N2CCN(C(c3ccc(F)cc3)c3ccc(F)cc3O)CC2)c2nc(Cl)ccc21` (stereo not drawn) [Example 222, 6-chloro-4-(4-((4-fluoro-2-hydroxyphenyl)(4-fluorophenyl)methyl)piperazin-1-yl)-1-methyl-2-oxo-1,2-dihydro-1,5-naphthyridine-3-carbonitrile], the IC50 in test [1] (Homo sapiens, Raji) was found to be 0.068 µM; in test [3] it was 0.083 µM.

Regarding `COc1ccccc1C(c1ccc(F)cc1)N1CCN(c2c(C#N)c(=O)n(CC3CC3)c3ccc(Br)nc23)CC1` (single isomer, unassigned) [Example 159, 6-bromo-1-(cyclopropylmethyl)-4-(4-((4-fluorophenyl)(2-methoxyphenyl)methyl)piperazin-1-yl)-2-oxo-1,2-dihydro-1,5-naphthyridine-3-carbonitrile], the IC50 in test [1] (Homo sapiens, Raji) is 2 µM; in test [2], above 240 µM; in test [3] it was 120 µM.

For the molecule `Cn1c(=O)c([N+](=O)[O-])c(N2CCN(C(c3ccc(F)cc3)c3ccc(F)cc3O)CC2)c2nc(C#N)ccc21` (stereo not drawn) [Example 122, 8-(4-((4-fluoro-2-hydroxyphenyl)(4-fluorophenyl)methyl)piperazin-1-yl)-5-methyl-7-nitro-6-oxo-5,6-dihydro-1,5-naphthyridine-2-carbonitrile], the half-maximal inhibitory concentration (IC50) in test [1] (Homo sapiens, Raji) stood at 0.011 µM; in test [2], 0.72 µM; in test [3], 1 µM.

For `COc1cc(F)ccc1C(c1ccc(F)cc1)N1CCN(c2c([N+](=O)[O-])c(=O)n(C)c3ccc(C#N)nc23)CC1` (racemic) [Example 123, 8-(4-((4-fluoro-2-methoxyphenyl)(4-fluorophenyl)methyl)piperazin-1-yl)-5-methyl-7-nitro-6-oxo-5,6-dihydro-1,5-naphthyridine-2-carbonitrile], the IC50 in test [3] was found to be 2.3 µM.

For `C#CCn1c(=O)c(C#N)c(N2CCN(C(c3ccc(F)cc3)c3ccccc3O)CC2)c2nc(Br)ccc21` (racemic) [Example 105, 6-bromo-4-(4-((4-fluorophenyl)(2-hydroxyphenyl)methyl)piperazin-1-yl)-2-oxo-1-(prop-2-yn-1-yl)-1,2-dihydro-1,5-naphthyridine-3-carbonitrile], the IC50 was 2.5 µM in test [2] and 0.58 µM in test [3].

The molecule `Cn1c(=O)c(C#N)c(N2CCN(C(c3ccc(F)cc3)c3ccccc3O)CC2)c2nc(Br)ccc21` (single isomer, unassigned) [Example 10, 6-bromo-4-{4-[(4-fluorophenyl)(2-hydroxyphenyl)methyl]piperazin-1-yl}-1-methyl-2-oxo-1,2-dihydro-1,5-naphthyridine-3-carbonitrile] returned an IC50 in test [1] of 0.003 µM.

In the case of `COc1ccc(CN2CCN(c3c(C#N)c(=O)n(C)c4ccc(Cl)nc34)CC2)c(O)c1` [Example 301, 6-chloro-4-{4-[(2-hydroxy-4-methoxyphenyl)methyl]piperazin-1-yl}-1-methyl-2-oxo-1,2-dihydro-1,5-naphthyridine-3-carbonitrile], in test [2], the IC50 is above 240 µM.

With `C#CCn1c(=O)c([N+](=O)[O-])c(N2CCN(C(c3ccc(F)cc3)c3ccc(F)cc3O)CC2)c2nc(C#N)ccc21` (racemic) [Example 119, 8-(4-((4-fluoro-2-hydroxyphenyl)(4-fluorophenyl)methyl)piperazin-1-yl)-7-nitro-6-oxo-5-(prop-2-yn-1-yl)-5,6-dihydro-1,5-naphthyridine-2-carbonitrile], the values for the IC50 in test [2] and in test [3] were 0.19 µM and 0.97 µM, respectively.

Consider `Cn1c(=O)c(C#N)c(N2CCN(C(c3ccc(F)cc3)c3ccccc3O)CC2)c2nc(Br)ccc21` (single isomer, unassigned) [Example 9, 6-bromo-4-{4-[(4-fluorophenyl)(2-hydroxyphenyl)methyl]piperazin-1-yl}-1-methyl-2-oxo-1,2-dihydro-1,5-naphthyridine-3-carbonitrile], for which the IC50 in test [1] was above 100 µM.

Consider `Cc1ccc2c(n1)c(N1CCN(C(c3ccc(F)cc3)c3ccc(F)cc3)CC1)c(F)c(=O)n2C` [Example 234, 4-(4-(bis(4-fluorophenyl)methyl)piperazin-1-yl)-3-fluoro-1,6-dimethyl-1,5-naphthyridin-2(1H)-one], for which the IC50 in test [1] (Homo sapiens, Raji) is 0.13 µM; in test [3], 16 µM.

For the molecule `C#CCn1c(=O)c([N+](=O)[O-])c(N2CCN(C(c3ccc(F)cc3)c3ccc(F)cc3OC)CC2)c2nc(C#N)ccc21` (racemic) [Example 126, 8-(4-((4-fluoro-2-methoxyphenyl)(4-fluorophenyl)methyl)piperazin-1-yl)-7-nitro-6-oxo-5-(prop-2-yn-1-yl)-5,6-dihydro-1,5-naphthyridine-2-carbonitrile], the IC50 in test [2] was found to be 0.33 µM; in test [3], 6.1 µM.

As to `Cn1c(=O)c(C#N)c(N2CCN(Cc3cccc(Br)c3O)CC2)c2nc(Br)ccc21` [Example 380, 6-bromo-4-{4-[(3-bromo-2-hydroxyphenyl)methyl]piperazin-1-yl}-1-methyl-2-oxo-1,2-dihydro-1,5-naphthyridine-3-carbonitrile], the IC50 was above 240 µM in test [2] and 0.83 µM in test [3].

The molecule `Cn1c(=O)c(C#N)c(N2CCN(C3CCc4cc(F)cc(O)c43)CC2)c2nc(Cl)ccc21` (stereo not drawn) [Example 201, 6-chloro-4-(4-(5-fluoro-7-hydroxy-2,3-dihydro-1H-inden-1-yl)piperazin-1-yl)-1-methyl-2-oxo-1,2-dihydro-1,5-naphthyridine-3-carbonitrile] came in with an IC50 in test [1] (Homo sapiens, Raji) of 22 µM.

In the case of `Cn1c(=O)c(C#N)c(N2CCN(C(c3ccc(F)cc3)c3ccccc3O)CC2)c2nc(Br)ccc21` (racemic) [Example 8, 6-bromo-4-{4-[(4-fluorophenyl)(2-hydroxyphenyl)methyl]piperazin-1-yl}-1-methyl-2-oxo-1,2-dihydro-1,5-naphthyridine-3-carbonitrile], the IC50 in test [1] (Homo sapiens, Raji) turned out to be 0.091 µM.
